Measurements as given in patent publication US8546608B2, “Proteasome inhibitors and methods of using the same” (Cephalon, Inc., priority 2003, dated 2013).
Counter-ions that a name gives are not always drawn. Like-named read-outs stand apart in the source and are kept apart here.

Key:
[1] = molecular target: T1, proteasome in Molt-4 cells (human leukemia) (Homo sapiens, UniProt P20618+P28074); assay type: cell-based
T1 sequence (P28074 60-263): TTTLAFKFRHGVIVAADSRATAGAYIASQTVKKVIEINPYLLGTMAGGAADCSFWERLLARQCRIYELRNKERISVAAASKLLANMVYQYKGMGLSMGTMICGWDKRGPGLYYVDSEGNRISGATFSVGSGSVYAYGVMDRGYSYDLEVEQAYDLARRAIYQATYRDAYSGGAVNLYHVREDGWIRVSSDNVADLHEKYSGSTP
T1 sequence (P20618 29-241): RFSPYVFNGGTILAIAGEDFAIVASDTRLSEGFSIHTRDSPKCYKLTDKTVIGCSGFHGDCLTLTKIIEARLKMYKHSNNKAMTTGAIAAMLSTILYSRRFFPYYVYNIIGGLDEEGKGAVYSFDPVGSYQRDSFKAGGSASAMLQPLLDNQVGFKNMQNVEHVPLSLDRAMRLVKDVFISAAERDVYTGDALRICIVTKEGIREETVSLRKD
How it was run: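 Intact Molt-4 cells (6×10^6 cells/mL) in HEPES-buffered saline were preincubated with inhibitor 15 min at 37 °C, then given cell-permeable MeOSuc-FLF-AFC at 25 μM final.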

[2] = molecular target: T2, 20S Human Erythrocyte Proteasome (HEP) (Homo sapiens, UniProt P20618+P28074); assay: Chymotrypsin-like activity of 20S Human Erythrocyte Proteasome (HEP), IC50 determination; assay type: biochemical; conditions: assay of Example C, inhibition of HEP
T2 construct: 20S Human Erythrocyte Proteasome (HEP), purchased from Immatics Biotechnologies Inc; purchased Immatics Biotechnologies Inc., Tübingen, Germany; host or cells: human erythrocytes (natural source)
How it was run: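 20S proteasome at 0.2 μg/mL (about 0.6 nM catalytic sites) in 20 mM Tris with 0.04% SDS, preincubated 15 min at 37° C with inhibitor before Suc-LLVY-AMC (100 μM final). AMC fluorescence read in the linear range; triplicates, IC50 from concentration series.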

[3] = assay of Example E, inhibition of MOLT4; read-out: MOLT4 (EC50)
[4] = read-out: MOLT4 (EC50); assay of Example E, inhibition of MOLT4

SMILES	EC50 [1, 3]	IC50 [2]	EC50 [1, 4]
CC(C)C[C@H](NC(=O)[C@H](CCCNC(=N)N[N+](=O)[O-])NC(=O)c1ccc2ccccc2c1)B(O)O [E.1.4, Boronic acid, [(1R)-1-[[(2S)-5-[[imino(nitroamino)methyl]amino]-2-[(2-naphthoyl)amino]-1-oxopentyl]amino]-3-methylbutyl]]	0.2 to 2 µM	< 0.01 µM	
COCCOCC(=O)N[C@@H](CCCNC(=N)N[N+](=O)[O-])C(=O)N[C@@H](CC(C)C)B(O)O [E.1.6, Boronic acid, [(1R)-1-[[(2S)-5-[[imino(nitroamino)methyl]amino]-2-[[2-(2-methoxyethoxy)acetyl]amino]-1-oxopentyl]amino]-3-methylbutyl], HCl salt]		< 0.1 µM	2 to 10 µM
CCCCOCC(=O)N[C@@H](CCCNC(=N)N[N+](=O)[O-])C(=O)N[C@@H](CC(C)C)B(O)O [E.1.7, Boronic acid, [(1R)-1-[[(2S)-5-[[imino (nitroamino)methyl]amino]-2-[(2-butoxyacetyl)amino]-1-oxopentyl]amino]-3-methylbutyl]]	2 to 10 µM	< 0.01 µM	
CC(C)C[C@H](NC(=O)[C@H](CCCNC(=N)N[N+](=O)[O-])NC(=O)Cc1ccccc1Cl)B(O)O [E.1.13, Boronic acid, [(1R)-1-[[(2S)-5-[[imino(nitroamino)methyl]amino]-2-[2-(2-chlorophenyl)acetyl]amino]-3-methylbutyl] HCl salt]		< 0.01 µM	2 to 10 µM
CCCCCCCCS(=O)(=O)N[C@@H](CCCNC(=N)N[N+](=O)[O-])C(=O)N[C@@H](CC(C)C)B(O)O [E.1.15, Boronic acid, [(1R)-1-[[(2S)-5-[[imino(nitroamino)methyl]amino]-2-[(1-octanesulfonyl)amino]-1-oxopentyl]amino]-3-methylbutyl], HCl salt]		< 0.01 µM	0.2 to 2 µM
CC(C)C[C@H](NC(=O)[C@H](CCCN/C(N)=N/[N+](=O)[O-])NC(=O)C(CCCCCCCCN1C(=O)c2ccccc2C1=O)C1CCCC1)B(O)O (some centres unmarked) [E.1.21]	< 0.2 µM	< 0.01 µM	
COC(=O)CCCCCCC(=O)N[C@@H](CCCNC(=N)N[N+](=O)[O-])C(=O)N[C@@H](CC(C)C)B(O)O [E.1.22, Boronic acid, [(1R)-1-[[(2S)-5-[[imino(nitroamino)methyl]amino]-2-[[7-(methoxycarbonyl)heptanoyl]amino]-1-oxopentyl]amino]-3-methylbutyl]]	> 10 µM	< 0.01 µM	
CC(C)C[C@H](NC(=O)[C@@H](NC(=O)c1ccc2ccccc2c1Br)[C@@H](C)O)B(O)O [E.1.25, Boronic acid, [(1R)-1-[[(2S,3R)-3-hydroxy-2-[(1-Bromo-2-naphthoyl)amino]-1-oxobutyl]amino]-3-methylbutyl]]	< 0.2 µM	< 0.01 µM	
CCCCCCCCCC(=O)N[C@@H](CC(N)=O)C(=O)N[C@@H](CC(C)C)B(O)O [E.1.27, Boronic acid, [(1R)-1-[[(2S)-3-carbamoyl-2-[(decanoyl)amino]-1-oxopropyl]amino]-3-methylbutyl]]	< 0.2 µM	< 0.01 µM	

Now from value to molecule, other results behind:

EC50 [1, 3]	IC50 [2]	SMILES	EC50 [1, 4]
2 to 10 µM	< 0.01 µM	CC(C)C[C@H](NC(=O)[C@H](CCCNC(=N)N[N+](=O)[O-])NC(=O)c1cnccn1)B(O)O [E.1.2, Boronic acid, [(1R)-1-[[(2S)-5-[[imino(nitroamino)methyl]amino]-2-[(2-pyrazine-carbonyl)amino]-1-oxopentyl]amino]-3-methylbutyl]]	
0.2 to 2 µM	< 0.01 µM	CCCCc1ccc(C(=O)N[C@@H](CCCNC(=N)N[N+](=O)[O-])C(=O)N[C@@H](CC(C)C)B(O)O)cc1 [E.1.3, Boronic acid, [(1R)-1-[[(2S)-5-[[imino(nitroamino)methyl]amino]-2-[(4-butyl-benzoyl)amino]-1-oxopentyl]amino]-3-methylbutyl]]	
> 10 µM	< 0.01 µM	CC(C)C[C@H](NC(=O)[C@H](CCCNC(=N)N[N+](=O)[O-])NC(=O)CCN1C(=O)c2ccccc2C1=O)B(O)O [E.1.5]	
> 10 µM	< 0.01 µM	COCCOCCOCC(=O)N[C@@H](CCCNC(=N)N[N+](=O)[O-])C(=O)N[C@@H](CC(C)C)B(O)O [E.1.8, Boronic acid, [(1R)-1-[[(2S)-5-[[imino(nitroamino)methyl]amino]-2-[[2-[2-(2-methoxyethoxy)ethoxy]acetyl]amino]-1-oxopentyl]amino]-3-methylbutyl]]	
0.2 to 2 µM	< 0.01 µM	CC(C)C[C@H](NC(=O)[C@H](CCCNC(=N)N[N+](=O)[O-])NC(=O)COc1ccc2ccccc2c1)B(O)O [E.1.11, Boronic acid, [(1R)-1-[[(2S)-5-[[imino(nitroamino)methyl]amino]-2-[(2-(naphthalen-2-yloxy)acetyl]amino]-1-oxopentyl]amino]-3-methylbutyl]]	
> 10 µM	< 0.01 µM	CC(C)C[C@H](NC(=O)[C@H](CCCNC(=N)N[N+](=O)[O-])NC(=O)CCc1cccs1)B(O)O [E.1.12, Boronic acid, [(1R)-1-[[(2S)-5-[[imino(nitroamino)methyl]amino]-2-[(3-thiophen-2-yl-propanoyl)amino]-1-oxopentyl]amino]-3-methylbutyl]]	
< 0.2 µM	< 0.01 µM	CCCCCCCCCC(=O)N[C@@H](CNC(=O)c1ccc(C)cc1)C(=O)N[C@@H](CC(C)C)B(O)O [E.1.16, Boronic acid, [(1R)-1-[[(2S)-3-[(4-methylbenzoyl)amino]-2-[(decanoylamino)]-1-oxopropyl]amino]-3-methylbutyl]]	
< 0.2 µM	< 0.01 µM	CCCCCCCCCC(=O)N[C@H](C(=O)N[C@@H](CC(C)C)B(O)O)[C@@H](C)O [E.1.17, Boronic acid, [(1R)-1-[[(2S,3R)-3-hydroxy-2-[(decanoyl)amino]-1-oxobutyl]amino]-3-methylbutyl]]	
< 0.2 µM	< 0.01 µM	CC(C)C[C@H](NC(=O)[C@@H](NC(=O)CCCCCCCCCN1C(=O)c2ccccc2C1=O)[C@@H](C)O)B(O)O [E.1.18, Boronic acid, [(1R)-1-[[(2S,3R)-3-hydroxy-2-[[10-(1,3-dioxo-1,3-dihydro-isoindol-2-yl)-decanoyl]amino]-1-oxobutyl]amino]-3-methylbutyl]]	
< 0.2 µM	< 0.01 µM	CC(C)C[C@H](NC(=O)[C@H](CCCNC(=N)N[N+](=O)[O-])NC(=O)CCCCCCCCCN1C(=O)c2ccccc2C1=O)B(O)O [E.1.20]	
< 0.2 µM	< 0.01 µM	CC(C)C[C@H](NC(=O)[C@@H](NC(=O)CCCc1ccccc1)[C@@H](C)O)B(O)O [E.1.23, Boronic acid, [(1R)-1-[[(2S,3R)-3-hydroxy-2-[(4-phenylbutanoyl)amino]-1-oxobutyl]amino]-3-methylbutyl]]	
< 0.2 µM	< 0.01 µM	CCCCCCCCCCCNC(=O)N[C@H](C(=O)N[C@@H](CC(C)C)B(O)O)[C@@H](C)O [E.1.24, Boronic acid, [(1R)-1-[[(2S,3R)-3-hydroxy-2-[(undecylaminocarbonyl)amino]-1-oxobutyl]amino]-3-methylbutyl]]	
< 0.2 µM	< 0.01 µM	CC(C)C[C@H](NC(=O)[C@@H](NC(=O)c1ccc2cc(Br)ccc2c1)[C@@H](C)O)B(O)O [E.1.26, Boronic acid, [(1R)-1-[[(2S,3R)-3-hydroxy-2-[(6-Bromo-2-naphthoyl)amino]-1-oxobutyl]amino]-3-methylbutyl]]	
